# Reference: patent US20260274895A1, “DE NOVO DESIGNED MEMBRANE-TRAVERSING AND ORALLY BIOAVAILABLE MACROCYCLES” (UNIVERSITY OF WASHINGTON, priority 2022, published 2026)
# Where two headings read alike, the source gives them in different places. Where a SMILES comes first, the peptide text is derived from it. [ ]: non-standard residue; d: D form. dNMeI = CC[C@@H](C)[C@@H](NC)C(=O)O; NMeF = CN[C@@H](Cc1ccccc1)C(=O)O; dNMeF = CN[C@H](Cc1ccccc1)C(=O)O; NMeL = CN[C@@H](CC(C)C)C(=O)O; dNMeL = CN[C@H](CC(C)C)C(=O)O; dNMeV = CN[C@@H](C(=O)O)C(C)C; NMeA = CN[C@@H](C)C(=O)O; dNMeA = CN[C@H](C)C(=O)O; Sar = CNCC(=O)O
# Assays:
# [1] = PAMPA, PAMPA_Papp_Avg (apparent permeability)
# [2] = PAMPA
# [3] = Plasma exposure, oral bioavailability and tolerability after single-dose IV, SQ and PO administration; details: in vivo
# [4] = mouse, in vivo, iv
# [5] = mouse, in vivo
# in vivo = details: male, Swiss Albino, mouse; for level at 0.08 h / level at 0.25 h / level at 0.5 h / level at 1 h / level at 3 h / level at 5 h / level at 8 h / level at 24 h: Plasma concentration
# [6] = Parallel artificial membrane permeability assay (PAMPA); details: average of three replicates; 16-20 hours incubation, 5% DMSO PBS
smiles,measurement,setting,value
"CC(C)C[C@@H]1C(=O)N[C@H](CC(C)C)C(=O)N2CCC[C@@H]2C(=O)N2CCC[C@H]2C(=O)N(C)[C@H](CC(C)C)C(=O)N[C@H](CC(C)C)C(=O)N2CCC[C@@H]2C(=O)N2CCC[C@H]2C(=O)N1C [Design D8.4, pP*llpP*ll] (cyclo([dNMeL][dL][dP]P[dNMeL][dL][dP]P))",Papp,[1],0.0358 ×10⁻⁶ cm/s
same,PAMPA_Papp_Avg (apparent permeability),[2],0.136 ×10⁻⁶ cm/s
CC[C@@H](C)[C@H]1NC(=O)[C@@H]2CCCN2C(=O)[C@@H]([C@H](C)CC)NC(=O)CN(C)C(=O)[C@H](CC(C)C)NC(=O)[C@@H](Cc2ccccc2)NC(=O)[C@H](CC(C)C)N(C)C(=O)[C@H]2CCCN2C(=O)[C@@H](CC(C)C)NC(=O)[C@H](CC(C)C)NC(=O)[C@H]2CCCN2C1=O [Design D11.2] (cyclo(L[Sar][dI]P[dI][dP]L[dL][dP][NMeL][dF])),bioavailability,[3],7.5 to 11%
"CC[C@@H](C)[C@H]1NC(=O)[C@H]([C@@H](C)CC)NC(=O)[C@H](CC(C)C)N(C)C(=O)[C@H]2CCCN2C(=O)[C@@H]([C@H](C)CC)NC(=O)[C@@H]([C@H](C)CC)N(C)C(=O)[C@H](CC(C)C)NC(=O)[C@H]2CCCN2C(=O)[C@@H]2CCCN2C(=O)[C@H](C(C)C)NC(=O)[C@H]2CCCN2C1=O [Design D11.3, VPpL*iip*LIip] (cyclo(I[dI][dP]VP[dP]L[dNMeI][dI][dP][NMeL]))",half-life,[4],5.58 h
same,PAMPA_Papp_Avg (apparent permeability),[2],1.48 ×10⁻⁶ cm/s
same,F,[5]; 10 mg/kg,40.06%
same,AUC0-inf,"[5]; iv, 1 mg/kg",7187.15 ng·h/mL
same,AUC0-last,"[5]; iv, 1 mg/kg",6965.11 ng·h/mL
same,AUCExtra,"[5]; iv, 1 mg/kg",3.09%
same,C0,"[5]; iv, 1 mg/kg",3957.56 ng/mL
same,Cl,"[5]; iv, 1 mg/kg",2.32 mL/min/kg
same,MRT0-last,"[5]; iv, 1 mg/kg",4.64 h
same,T½,"[5]; iv, 1 mg/kg",5.58 h
same,Vd,"[5]; iv, 1 mg/kg",1.12 L/kg
same,AUC0-inf,"[5]; po, 10 mg/kg",28793.58 ng·h/mL
same,AUC0-last,"[5]; po, 10 mg/kg",28242.38 ng·h/mL
same,AUCExtra,"[5]; po, 10 mg/kg",1.91%
same,MRT0-last,"[5]; po, 10 mg/kg",6.32 h
same,AUC0-inf,"[5]; sc, 5 mg/kg",3047.15 ng·h/mL
same,AUC0-last,"[5]; sc, 5 mg/kg",2122.81 ng·h/mL
same,AUCExtra,"[5]; sc, 5 mg/kg",30.33%
same,MRT0-last,"[5]; sc, 5 mg/kg",10.71 h
same,level at 0.08 h,"in vivo; iv, 1 mg/kg",3750 ng/mL
same,level at 0.25 h,"in vivo; iv, 1 mg/kg",3350 ng/mL
same,level at 0.5 h,"in vivo; iv, 1 mg/kg",2010 ng/mL
same,level at 1 h,"in vivo; iv, 1 mg/kg",1140 ng/mL
same,level at 3 h,"in vivo; iv, 1 mg/kg",512 ng/mL
same,level at 5 h,"in vivo; iv, 1 mg/kg",267 ng/mL
same,level at 8 h,"in vivo; iv, 1 mg/kg",235 ng/mL
same,level at 24 h,"in vivo; iv, 1 mg/kg",27.6 ng/mL
same,level at 0.08 h,"in vivo; po, 10 mg/kg",69.6 ng/mL
same,level at 0.25 h,"in vivo; po, 10 mg/kg",750 ng/mL
same,level at 0.5 h,"in vivo; po, 10 mg/kg",2520 ng/mL
same,level at 1 h,"in vivo; po, 10 mg/kg",2960 ng/mL
same,level at 3 h,"in vivo; po, 10 mg/kg",3500 ng/mL
same,level at 5 h,"in vivo; po, 10 mg/kg",2540 ng/mL
same,level at 8 h,"in vivo; po, 10 mg/kg",1480 ng/mL
same,level at 24 h,"in vivo; po, 10 mg/kg",95 ng/mL
same,bioavailability,"in vivo; sc, 5 mg/kg",8.48%
same,level at 0.08 h,"in vivo; sc, 5 mg/kg",12.4 ng/mL
same,level at 1 h,"in vivo; sc, 5 mg/kg",44.1 ng/mL
same,level at 3 h,"in vivo; sc, 5 mg/kg",128 ng/mL
same,level at 5 h,"in vivo; sc, 5 mg/kg",148 ng/mL
same,level at 8 h,"in vivo; sc, 5 mg/kg",114 ng/mL
same,level at 24 h,"in vivo; sc, 5 mg/kg",57.6 ng/mL
"CC(C)C[C@@H]1NC(=O)[C@H](CC(C)C)N(C)C(=O)[C@H]2CCCN2C(=O)[C@H]2CCCN2C(=O)[C@H](CC(C)C)NC(=O)[C@@H](CC(C)C)N(C)C(=O)[C@@H](C)NC(=O)[C@@H](CC(C)C)N(C)C(=O)[C@H]2CCCN2C(=O)[C@@H](CC(C)C)NC(=O)[C@@H](C)N(C)C1=O [Design D11.15, Lpp*LL*alp*la*l] (cyclo(L[dNMeA][dL][dP][dNMeL][dA][dNMeL]L[dP][dP][NMeL]))",PAMPA_Papp_Avg (apparent permeability),[6],1.29 ×10⁻⁶ cm/s
"CC(C)C[C@H]1NC(=O)[C@@H](C)NC(=O)[C@@H](C)NC(=O)[C@H]2CCCN2C(=O)[C@@H]2CCCN2C(=O)[C@H]2CCCN2C(=O)[C@@H](C)NC(=O)[C@@H](Cc2ccccc2)N(C)C(=O)[C@H]2CCCN2C(=O)[C@@H](CC(C)C)NC(=O)[C@@H](CC(C)C)NC1=O [Design D11.25, lp*fapPpaall] (cyclo([dP][dA][dA][dL][dL][dL][dP][dNMeF][dA][dP]P))",Papp,[1],0.417 ×10⁻⁶ cm/s
"CC[C@H](C)[C@@H]1NC(=O)[C@H](Cc2ccccc2)N(C)C(=O)[C@H]2CCCN2C(=O)[C@H]([C@@H](C)CC)NC(=O)[C@@H](C)N(C)C(=O)[C@@H](C)NC(=O)[C@@H]2CCCN2C(=O)[C@H]2CCCN2C(=O)[C@H](CC(C)C)NC(=O)[C@@H](CC(C)C)NC(=O)[C@H](CC(C)C)NC(=O)[C@H]2CCCN2C1=O [Design D12.6, p*FIpLILpPa*aI] (cyclo([dA][dNMeA]I[dP][NMeF]I[dP]L[dL]L[dP]P))",Papp,[1],1.39 ×10⁻⁶ cm/s
"CC(C)C[C@@H]1C(=O)N(C)[C@@H](Cc2ccccc2)C(=O)N[C@@H](C(C)C)C(=O)N2CCC[C@H]2C(=O)NCC(=O)N2CCC[C@H]2C(=O)N(C)[C@H](CC(C)C)C(=O)N[C@@H](C(C)C)C(=O)N[C@H](CC(C)C)C(=O)N1C [SEQ ID NO 69, *lvl*l*FVPGP] (cyclo(GP[dNMeL]V[dL][dNMeL][NMeF]VP))",Papp,[1],0.946 ×10⁻⁶ cm/s
"CC[C@@H](C)[C@H]1NC(=O)[C@H](CC(C)C)N(C)C(=O)[C@H]2CCCN2C(=O)[C@H](CC(C)C)NC(=O)[C@@H](Cc2ccccc2)N(C)C(=O)[C@H](CC(C)C)N(C)C(=O)[C@@H](C(C)C)NC(=O)[C@H](C)NC(=O)[C@H]2CCCN2C(=O)[C@@H]2CCCN2C1=O [SEQ ID NO 94, *L*fLp*LiPpAv] (cyclo(A[dV][NMeL][dNMeF]L[dP][NMeL][dI]P[dP]))",Papp,[1],2.69 ×10⁻⁶ cm/s
"CC(C)C[C@@H]1NC(=O)[C@@H]2CCCN2C(=O)[C@@H](Cc2ccccc2)NC(=O)[C@H](C)N(C)C(=O)[C@H](CC(C)C)NC(=O)[C@H](CC(C)C)N(C)C(=O)[C@@H](C)NC(=O)[C@@H](CC(C)C)NC(=O)[C@@H]2CCCN2C(=O)[C@@H](Cc2ccccc2)NC1=O [SEQ ID NO 108, LfPla*LL*AfP] (cyclo(L[NMeA][dF]PL[dF]P[dL][dA][NMeL]))",Papp,[1],3.92 ×10⁻⁶ cm/s
"CC[C@@H](C)[C@H]1NC(=O)[C@@H](CC(C)C)N(C)C(=O)[C@@H]2CCCN2C(=O)[C@H](C(C)C)NC(=O)[C@@H](C)N(C)C(=O)[C@@H]2CCCN2C(=O)[C@@H](CC(C)C)NC(=O)[C@@H](C(C)C)N(C)C(=O)[C@@H]2CCCN2C(=O)[C@H](C)NC(=O)[C@H](C(C)C)NC(=O)[C@@H]2CCCN2C1=O [SEQ ID NO 117, VP*liPVAP*vlP*a] (cyclo(AP[dNMeV][dL]P[dNMeA]VP[dNMeL][dI]PV))",PAMPA_Papp_Avg (apparent permeability),[6],0.1 ×10⁻⁶ cm/s
